Test [1] relates to ECHCG. Kind of test: Pre-emergence herbicidal effect against ECHCG. The class given is in vivo, Echinochloa crus-galli. The settings on record: 320 g/ha, scored visually after 3 weeks vs untreated controls, 100% = plants have died. The source says:
(§1) Seeds of monocotyledonous and dicotyledonous weed plants and crop plants are laid out in sandy loam soil in wood-fiber pots and covered with soil. The compounds of the invention, formulated in the form of wettable powders (WP) or as emulsion concentrates (EC), are then applied to the surface of the covering soil as aqueous suspension or emulsion at a water application rate equating to 600 to 800 L/ha with addition of 0.2% wetting agent.
(§2) After the treatment, the pots are placed in a greenhouse and kept under good growth conditions for the trial plants. The damage to the test plants is scored visually after a test period of 3 weeks by comparison with untreated controls (herbicidal activity in percent (%): 100% activity=the plants have died, 0% activity=like control plants).

For test [2], the system named is LOLRI. Kind of test: Post-emergence herbicidal effect against LOLRI. Type of test: in vivo, Lolium rigidum. The settings on record: one-leaf stage, 80 g/ha, assessed visually after about 3 weeks vs untreated controls, 100% = plants have died. On the procedure:
(§3) Seeds of monocotyledonous and dicotyledonous weed and crop plants are laid out in sandy loam soil in wood-fiber pots, covered with soil and cultivated in a greenhouse under good growth conditions. 2 to 3 weeks after sowing, the test plants are treated at the one-leaf stage. The compounds of the invention, formulated in the form of wettable powders (WP) or as emulsion concentrates (EC), are then sprayed onto the green parts of the plants as aqueous suspension or emulsion at a water application rate equating to 600 to 800 l/ha with addition of 0.2% wetting agent. After the test plants have been left to stand in the greenhouse under optimal growth conditions for about 3 weeks, the action of the preparations is assessed visually in comparison to untreated controls (herbicidal action in percent (%): 100% activity=the plants have died, 0% activity=like control plants).

Test [3] concerns SETVI. Nature of the test: Pre-emergence herbicidal effect against SETVI. The class given is in vivo, Setaria viridis. The settings on record: 320 g/ha, scored visually after 3 weeks vs untreated controls, 100% = plants have died.
From the text: as §1, §2

Test [4] deals with ALOMY. Nature of the test: Post-emergence herbicidal effect against ALOMY. Type of test: in vivo, Alopecurus myosuroides. The settings on record: one-leaf stage, 80 g/ha, assessed visually after about 3 weeks vs untreated controls, 100% = plants have died. As to the method:
as §3

In test [5] the test system is AVEFA. Kind of test: Pre-emergence herbicidal effect against AVEFA. The class given is in vivo, Avena fatua. The settings on record: 320 g/ha, scored visually after 3 weeks vs untreated controls, 100% = plants have died.
From the text: as §1, §2

Test [6] concerns AVEFA. Nature of the test: Post-emergence herbicidal effect against AVEFA. The class given is in vivo, Avena fatua. The settings on record: one-leaf stage, 80 g/ha, assessed visually after about 3 weeks vs untreated controls, 100% = plants have died. As to the method:
as §3

The test system of test [7] is SETVI. Nature of the test: Post-emergence herbicidal effect against SETVI. The settings on record: one-leaf stage, 80 g/ha, assessed visually after about 3 weeks vs untreated controls, 100% = plants have died. The class given is in vivo, Setaria viridis. As to the method:
as §3

For test [8], the system named is ECHCG. Nature of the test: Post-emergence herbicidal effect against ECHCG. The class given is in vivo, Echinochloa crus-galli. The settings on record: one-leaf stage, 80 g/ha, assessed visually after about 3 weeks vs untreated controls, 100% = plants have died. On the procedure:
as §3

Test [9] has as its system LOLRI. Kind of test: Pre-emergence herbicidal effect against LOLRI. The settings on record: 320 g/ha, scored visually after 3 weeks vs untreated controls, 100% = plants have died. The class given is in vivo, Lolium rigidum.
From the text: as §1, §2

Test [10] concerns ALOMY. Kind of test: Pre-emergence herbicidal effect against ALOMY. Type of test: in vivo, Alopecurus myosuroides. The settings on record: 320 g/ha, scored visually after 3 weeks vs untreated controls, 100% = plants have died.
From the text: as §1, §2

Test [11] deals with DIGSA. Nature of the test: Post-emergence herbicidal effect against DIGSA. The settings on record: one-leaf stage, 80 g/ha, assessed visually after about 3 weeks vs untreated controls, 100% = plants have died. The class given is in vivo, Digitaria sanguinalis. As to the method:
as §3

Test [12] has as its system DIGSA. Kind of test: Pre-emergence herbicidal effect against DIGSA. The class given is in vivo, Digitaria sanguinalis. The settings on record: 320 g/ha, scored visually after 3 weeks vs untreated controls, 100% = plants have died.
From the text: as §1, §2

Another test has as its system VIOTR. Kind of test: Pre-emergence herbicidal effect against VIOTR. Type of test: in vivo, Viola tricolor. The settings on record: 320 g/ha, scored visually after 3 weeks vs untreated controls, 100% = plants have died.
From the text: as §1, §2

As for `CC#Cc1cc(C)c(C2=C(OC(=O)OC)C3(CCCC(OCC(C)C)C3)NC2=O)c(Cl)c1` (centres unmarked) [Example Q6], in the test with ECHCG [1], the “Pre-emergence action [%] against ECHCG” value is on record as 100%. Besides, in the test with LOLRI [2], the “Post-emergence action [%] against LOLRI” value is 100%. In the test on SETVI [3], the “Pre-emergence action [%] against SETVI” value turned out to be 100%. Moreover, the “Post-emergence action [%] against ALOMY” value with ALOMY [4] was found to be 100%. Moreover, the “Pre-emergence action [%] against AVEFA” value with AVEFA [5] is reported as 90%. For the same compound, the “Post-emergence action [%] against AVEFA” value in the test with AVEFA [6] is 100%. Moreover, in the test with SETVI [7], the “Post-emergence action [%] against SETVI” value worked out at 100%. Also, the “Post-emergence action [%] against ECHCG” value with ECHCG [8] is reported as 100%. In the test on LOLRI [9], the “Pre-emergence action [%] against LOLRI” value came to 100%. Also, in the test with ALOMY [10], the “Pre-emergence action [%] against ALOMY” value is on record as 100%. In the test with DIGSA [11], the “Post-emergence action [%] against DIGSA” value is recorded as 100%. Besides, the “Pre-emergence action [%] against DIGSA” value with DIGSA [12] came to 100%.
In the case of `CC#Cc1cc(Br)c(C2=C(O)C3(CCCC(OCCOC)C3)NC2=O)c(C2CC2)c1` (centres unmarked) [Example D11], the “Pre-emergence action [%] against ECHCG” value in the test with ECHCG [1] worked out at 100%. The “Post-emergence action [%] against LOLRI” value with LOLRI [2] was 100%. Besides, the “Pre-emergence action [%] against VIOTR” value with VIOTR is on record as 100%. Moreover, the “Pre-emergence action [%] against SETVI” value with SETVI [3] is listed as 100%. Also, the “Post-emergence action [%] against ALOMY” value in the test on ALOMY [4] is 100%. Besides, the “Pre-emergence action [%] against AVEFA” value with AVEFA [5] is listed as 100%. In addition, in the test on SETVI [7], the “Post-emergence action [%] against SETVI” value is 100%. Further, in the test with ECHCG [8], the “Post-emergence action [%] against ECHCG” value is given as 100%. Also, the “Pre-emergence action [%] against LOLRI” value in the test on LOLRI [9] is on record as 100%. The “Pre-emergence action [%] against ALOMY” value in the test with ALOMY [10] worked out at 100%. Besides, the “Post-emergence action [%] against DIGSA” value with DIGSA [11] came out at 100%. The “Pre-emergence action [%] against DIGSA” value in the test with DIGSA [12] is reported as 100%.
As to `CC#Cc1cc(Br)c(C2=C(O)C3(CCC(OC)CC3)NC2=O)c(CC)c1` (centres unmarked) [Example E25], in the test on VIOTR, the “Pre-emergence action [%] against VIOTR” value is given as 80%. Further, in the test on ALOMY [4], the “Post-emergence action [%] against ALOMY” value amounted to 90%. In the test on SETVI [7], the “Post-emergence action [%] against SETVI” value is given as 90%.
In the case of `CC#Cc1cc(Cl)c(C2=C(O)C3(CCC(OCC)CC3)NC2=O)c(CC)c1` (centres unmarked) [Example E12], the “Pre-emergence action [%] against ECHCG” value in the test on ECHCG [1] is recorded as 100%. In the test on VIOTR, the “Pre-emergence action [%] against VIOTR” value turned out to be 100%. Moreover, the “Pre-emergence action [%] against SETVI” value with SETVI [3] stood at 100%. Also, in the test on AVEFA [5], the “Pre-emergence action [%] against AVEFA” value was found to be 90%. In addition, the “Post-emergence action [%] against SETVI” value with SETVI [7] stood at 100%. In addition, in the test with ECHCG [8], the “Post-emergence action [%] against ECHCG” value is recorded as 100%. Also, the “Pre-emergence action [%] against LOLRI” value with LOLRI [9] stood at 100%. Besides, in the test on ALOMY [10], the “Pre-emergence action [%] against ALOMY” value is listed as 90%. Moreover, the “Pre-emergence action [%] against DIGSA” value with DIGSA [12] is 100%.
Regarding `CC#Cc1cc(Br)c(C2=C(O)C3(CCC(OC)CC3)NC2=O)c(C2CC2)c1` (centres unmarked) [Example E26], in the test with ECHCG [1], the “Pre-emergence action [%] against ECHCG” value was found to be 100%. In addition, the “Post-emergence action [%] against LOLRI” value in the test with LOLRI [2] was 100%. Also, the “Pre-emergence action [%] against VIOTR” value in the test with VIOTR worked out at 90%. Further, the “Pre-emergence action [%] against SETVI” value in the test with SETVI [3] was determined as 100%. The “Post-emergence action [%] against ALOMY” value in the test with ALOMY [4] came out at 100%. In the test on AVEFA [5], the “Pre-emergence action [%] against AVEFA” value worked out at 90%. Further, the “Post-emergence action [%] against SETVI” value in the test with SETVI [7] was found to be 100%. Further, the “Post-emergence action [%] against ECHCG” value in the test with ECHCG [8] amounted to 100%. Moreover, the “Pre-emergence action [%] against LOLRI” value with LOLRI [9] was determined as 100%. Besides, the “Pre-emergence action [%] against ALOMY” value in the test with ALOMY [10] is 100%. Moreover, the “Post-emergence action [%] against DIGSA” value in the test on DIGSA [11] was 100%. Further, in the test with DIGSA [12], the “Pre-emergence action [%] against DIGSA” value is given as 100%.
Take `CC#Cc1cc(Cl)c(C2=C(OC(=O)OC)C3(CCC(OC)CC3)NC2=O)c(CC)c1` (centres unmarked) [Example P24]: the “Pre-emergence action [%] against ECHCG” value in the test on ECHCG [1] came to 90%. Further, the “Pre-emergence action [%] against SETVI” value in the test with SETVI [3] amounted to 100%. In addition, the “Post-emergence action [%] against ALOMY” value with ALOMY [4] worked out at 100%. Also, in the test on AVEFA [5], the “Pre-emergence action [%] against AVEFA” value stood at 100%. Further, in the test on AVEFA [6], the “Post-emergence action [%] against AVEFA” value amounted to 90%. The “Post-emergence action [%] against SETVI” value in the test on SETVI [7] is 100%. Also, in the test on ECHCG [8], the “Post-emergence action [%] against ECHCG” value came out at 100%. In addition, the “Pre-emergence action [%] against LOLRI” value in the test on LOLRI [9] came to 100%. For the same compound, the “Pre-emergence action [%] against ALOMY” value in the test with ALOMY [10] turned out to be 100%. Moreover, the “Post-emergence action [%] against DIGSA” value in the test on DIGSA [11] is 90%. In the test on DIGSA [12], the “Pre-emergence action [%] against DIGSA” value was determined as 100%.

The values are drawn from patent US20220151230A1, “SPECIFICALLY SUBSTITUTED 3-(2-HALOGEN-6-ALKYL-4-PROPINYLPHENYL)-3-PYRROLIN-2-ONES AND TO THE USE THEREOF AS HERBICIDES” (Bayer Aktiengesellschaft, priority 2019, published 2022).
